From patent publication US20250163047A1, “HETEROCYCLIC COMPOUNDS, COMPOSITIONS THEREOF, AND METHODS OF TREATMENT THEREWITH” (BeiGene, Ltd., priority 2022, published 2025)

Legend:
Cbl-b (aa36-427) = target: T1, Cbl-b (aa36-427) (Homo sapiens, UniProt Q13191); assay: Co-expressed Cbl-b with BirA biochemical assay (CBLB/E2-Ub binding, HTRF); details: 0.6 nM Cbl-b co-expressed with BirA, HTRF; read-out: co-express CBLB/E2-Ub-binding assay IC50
T1 construct: Cbl-b (aa36-427, in-house); made in house
T1 sequence (Q13191 36-427): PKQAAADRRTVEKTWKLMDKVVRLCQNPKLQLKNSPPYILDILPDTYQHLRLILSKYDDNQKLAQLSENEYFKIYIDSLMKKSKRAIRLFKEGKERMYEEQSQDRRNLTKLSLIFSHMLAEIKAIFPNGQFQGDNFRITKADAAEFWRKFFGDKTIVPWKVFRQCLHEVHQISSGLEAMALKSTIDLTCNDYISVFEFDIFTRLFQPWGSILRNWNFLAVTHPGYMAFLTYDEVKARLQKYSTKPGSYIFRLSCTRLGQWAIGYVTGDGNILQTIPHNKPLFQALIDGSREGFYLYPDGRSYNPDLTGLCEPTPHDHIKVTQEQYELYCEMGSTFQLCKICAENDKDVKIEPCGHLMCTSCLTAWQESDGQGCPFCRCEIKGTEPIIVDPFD
Text: (§1) The assay in the absence of a Cbl-b/Cbl inhibitor, where phosphorylation of Cbl-b/Cbl by the Src kinase allows UbcH5B-Ub to bind to Cbl-b/Cbl and brings the Bodipy-Fluorescein tagged ubiquitin in proximity to the streptavidin-terbium bound to the N-terminal biotinylated Avi-tagged Cbl-b/Cbl. […] The lack of a FRET signal indicates Cbl-b/Cbl is inhibited by the Cbl-b/Cbl inhibitor.

Cbl (aa49-434) = target: T2, Cbl (aa49-434) (Homo sapiens, UniProt P22681); assay: Co-expressed Cbl with BirA biochemical assay (CBL/E2-Ub binding, HTRF); details: 0.6 nM Cbl co-expressed with BirA, read-out: co-express CBL/E2-Ub-binding assay IC50
T2 construct: Cbl (aa49-434, in-house); made in house
T2 sequence (P22681 49-434): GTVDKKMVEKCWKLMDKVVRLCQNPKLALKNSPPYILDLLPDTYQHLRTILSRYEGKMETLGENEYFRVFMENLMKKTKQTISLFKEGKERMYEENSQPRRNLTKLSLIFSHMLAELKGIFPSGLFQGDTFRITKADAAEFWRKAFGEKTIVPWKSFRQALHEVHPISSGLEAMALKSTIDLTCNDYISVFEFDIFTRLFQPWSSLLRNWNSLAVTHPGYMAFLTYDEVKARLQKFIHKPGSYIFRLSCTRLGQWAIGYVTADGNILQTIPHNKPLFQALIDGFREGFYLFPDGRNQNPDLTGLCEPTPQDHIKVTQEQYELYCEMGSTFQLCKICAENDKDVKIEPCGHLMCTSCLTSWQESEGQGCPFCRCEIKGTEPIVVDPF
Text: as §1

IC50 (Cbl-b (aa36-427)) | IC50 (Cbl (aa49-434)) | SMILES
4 nM | 19.5 nM | Cn1cnnc1[C@]1(c2cccc(NC(=O)c3cc(CNCC4CCC(F)(F)CC4)c4[nH]ccc4n3)c2)C[C@H](CC#N)C1 [Compound B22, N-(3-((1s, 3s)-3-(cyanomethyl)-1-(4-methyl-4H-1,2,4-triazol-3-yl)cyclobutyl)phenyl)-7-((((4,4-difluorocyclohexyl)methyl)amino)methyl)-1H-pyrrolo[3,2-b]pyridine-5-carboxamide]
1.3 nM | 6.8 nM | Cn1cnnc1[C@]1(c2cccc(NC(=O)c3cc(CNC4CCCCCC4)c4c(n3)C(C)(C)CC4)c2)C[C@H](CC#N)C1 [Compound C54, N-(3-((1s, 3s)-3-(cyanomethyl)-1-(4-methyl-4H-1,2,4-triazol-3-yl)cyclobutyl)phenyl)-4-((cycloheptylamino)methyl)-7,7-dimethyl-6,7-dihydro-5H-cyclopenta[b]pyridine-2-carboxamide]
6 nM | 18.7 nM | C[C@H]1CCCN(Cc2cc(C(=O)Nc3cccc([C@]4(c5nncn5C)C[C@@H](C)C4)c3)c3nc(F)cn3c2)C1 [Compound A8, 2-fluoro-N-(3-((1s,3R)-3-methyl-1-(4-methyl-4H-1,2,4-triazol-3-yl)cyclobutyl)phenyl)-6-(((S)-3-methylpiperidin-1-yl)methyl)imidazo[1,2-a]pyridine-8-carboxamide]
1.9 nM | 9 nM | Cn1cnnc1[C@]1(c2cncc(NC(=O)c3cc(CNC4(C)CC4)c4[nH]ccc4n3)c2)C[C@H](C)C1 [Compound B44, N-(5-((1s, 3s)-3-methyl-1-(4-methyl-4H-1,2,4-triazol-3-yl)cyclobutyl)pyridin-3-yl)-7-(((1-methylcyclopropyl)amino)methyl)-1H-pyrrolo[3,2-b]pyridine-5-carboxamide]
1.9 nM | 6 nM | C[C@@H]1CN(Cc2cc(C(=O)Nc3cncc([C@]4(c5nncn5C)C[C@@H](C)C4)c3)c3nccn3c2)CC[C@@H]1F [Compound A54, 6-(((3R,4S)-4-fluoro-3-methylpiperidin-1-yl)methyl)-N-(5-((1s,3S)-3-methyl-1-(4-methyl-4H-1,2,4-triazol-3-yl)cyclobutyl)pyridin-3-yl)imidazo[1,2-a]pyridine-8-carboxamide]
0.5 nM | 12 nM | Cn1cnnc1[C@]1(c2cccc(NC(=O)c3cc(CNC4(C)CC4)cn4cc(F)nc34)c2)C[C@H](CC#N)C1 [Compound A84, N-(3-((1s, 3s)-3-(cyanomethyl)-1-(4-methyl-4H-1,2,4-triazol-3-yl)cyclobutyl)phenyl)-2-fluoro-6-(((1-methylcyclopropyl)amino)methyl)imidazo[1,2-a]pyridine-8-carboxamide]
1.8 nM | 7.6 nM | Cn1cnnc1[C@]1(c2cccc(NC(=O)c3cc(CNCC4CCCC4)cn4ccnc34)c2)C[C@H](C)C1 [Compound A42, 6-(((cyclopentylmethyl)amino)methyl)-N-(3-((1s, 3s)-3-methyl-1-(4-methyl-4H-1,2,4-triazol-3-yl)cyclobutyl)phenyl)imidazo[1,2-a]pyridine-8-carboxamide]
13.6 nM | 89.9 nM | C[C@H]1CCCN(Cc2cc(C(=O)Nc3cccc([C@]4(c5nncn5C)C[C@@H](CC#N)C4)c3)nn3cccc23)C1 [Compound B14, 4-{[(3S)-3-methylpiperidin-1-yl]methyl}-N-{3-[(1s, 3s)-3-(cyanomethyl)-1-(4-methyl-1,2,4-triazol-3-yl)cyclobutyl]phenyl}pyrrolo[1,2-b]pyridazine-2-carboxamide]
1.7 nM | 45 nM | Cn1cnnc1[C@]1(c2cccc(NC(=O)c3cc(CNC4(C)CC4)cn4ncnc34)c2)C[C@H](CC#N)C1 [Compound A89, N-(3-((1s, 3s)-3-(cyanomethyl)-1-(4-methyl-4H-1,2,4-triazol-3-yl)cyclobutyl)phenyl)-6-(((1-methylcyclopropyl)amino)methyl)-[1,2,4]triazolo[1,5-a]pyridine-8-carboxamide]
